In ChEMBL document CHEMBL3879891, “Hydrazone compounds and their use” (2011):

Assays:
[1] = biological target: Transient receptor potential cation channel, subfamily M, member 5 (Rattus norvegicus) (UniProt A0A8I6AG64); test: Activation of TRPM5 in Sprague-Dawley rat primary islets assessed as induction of 12 mM glucose-mediated insulin secretion after 3 hrs by ELISA
[2] = biological target: T1, Transient receptor potential cation channel subfamily M member 5 (Mus musculus) (UniProt Q9JJH7); test: Activation of TRPM5 in mouse GLUTag cells assessed as induction of 0.3 mM glucose-mediated GLP-1 secretion after 2 hrs by ELISA; type: cell-based
T1 sequence (whole entry): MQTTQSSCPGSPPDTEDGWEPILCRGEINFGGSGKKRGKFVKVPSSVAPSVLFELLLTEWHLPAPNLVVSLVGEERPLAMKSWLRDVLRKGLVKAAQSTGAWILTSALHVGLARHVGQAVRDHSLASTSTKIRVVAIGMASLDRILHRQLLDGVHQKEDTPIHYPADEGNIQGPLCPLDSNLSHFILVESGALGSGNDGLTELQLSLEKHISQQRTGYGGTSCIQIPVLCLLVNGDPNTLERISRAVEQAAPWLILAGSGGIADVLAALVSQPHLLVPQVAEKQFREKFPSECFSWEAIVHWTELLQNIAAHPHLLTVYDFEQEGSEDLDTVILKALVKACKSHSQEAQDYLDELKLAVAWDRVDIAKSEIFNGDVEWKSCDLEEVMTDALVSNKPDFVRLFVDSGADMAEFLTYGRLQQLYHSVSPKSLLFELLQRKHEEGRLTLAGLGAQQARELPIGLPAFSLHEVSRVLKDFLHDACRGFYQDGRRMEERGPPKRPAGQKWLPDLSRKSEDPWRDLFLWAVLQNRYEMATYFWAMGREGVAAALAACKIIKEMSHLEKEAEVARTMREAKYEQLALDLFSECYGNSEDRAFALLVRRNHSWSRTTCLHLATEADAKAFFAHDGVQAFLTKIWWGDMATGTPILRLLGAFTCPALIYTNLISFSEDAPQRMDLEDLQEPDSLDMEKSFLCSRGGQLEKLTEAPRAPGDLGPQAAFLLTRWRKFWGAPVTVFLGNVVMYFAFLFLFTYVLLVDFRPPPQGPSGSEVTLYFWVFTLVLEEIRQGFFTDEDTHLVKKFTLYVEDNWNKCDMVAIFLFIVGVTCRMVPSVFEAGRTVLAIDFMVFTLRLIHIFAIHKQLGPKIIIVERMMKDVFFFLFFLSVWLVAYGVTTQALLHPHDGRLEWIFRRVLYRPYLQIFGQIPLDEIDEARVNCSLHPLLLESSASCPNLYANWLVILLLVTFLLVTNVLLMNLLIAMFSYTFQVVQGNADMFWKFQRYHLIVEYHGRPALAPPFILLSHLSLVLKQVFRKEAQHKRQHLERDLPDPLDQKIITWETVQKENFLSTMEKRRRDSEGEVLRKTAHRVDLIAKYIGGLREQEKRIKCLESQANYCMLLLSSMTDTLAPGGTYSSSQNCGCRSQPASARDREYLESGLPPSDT

[3] = biological target: T1, Transient receptor potential cation channel subfamily M member 5 (Mus musculus); test: Activation of TRPM5 in SV40 expressing transgenic mouse Beta-TC-6 cells assessed as induction of 1 mM glucose-mediated insulin secretion after 2 hrs by ELISA

Measured: Activity

Transient receptor potential cation channel, subfamily M, member 5 (Rattus norvegicus), sequence (A0A8I6AG64 as listed by the source): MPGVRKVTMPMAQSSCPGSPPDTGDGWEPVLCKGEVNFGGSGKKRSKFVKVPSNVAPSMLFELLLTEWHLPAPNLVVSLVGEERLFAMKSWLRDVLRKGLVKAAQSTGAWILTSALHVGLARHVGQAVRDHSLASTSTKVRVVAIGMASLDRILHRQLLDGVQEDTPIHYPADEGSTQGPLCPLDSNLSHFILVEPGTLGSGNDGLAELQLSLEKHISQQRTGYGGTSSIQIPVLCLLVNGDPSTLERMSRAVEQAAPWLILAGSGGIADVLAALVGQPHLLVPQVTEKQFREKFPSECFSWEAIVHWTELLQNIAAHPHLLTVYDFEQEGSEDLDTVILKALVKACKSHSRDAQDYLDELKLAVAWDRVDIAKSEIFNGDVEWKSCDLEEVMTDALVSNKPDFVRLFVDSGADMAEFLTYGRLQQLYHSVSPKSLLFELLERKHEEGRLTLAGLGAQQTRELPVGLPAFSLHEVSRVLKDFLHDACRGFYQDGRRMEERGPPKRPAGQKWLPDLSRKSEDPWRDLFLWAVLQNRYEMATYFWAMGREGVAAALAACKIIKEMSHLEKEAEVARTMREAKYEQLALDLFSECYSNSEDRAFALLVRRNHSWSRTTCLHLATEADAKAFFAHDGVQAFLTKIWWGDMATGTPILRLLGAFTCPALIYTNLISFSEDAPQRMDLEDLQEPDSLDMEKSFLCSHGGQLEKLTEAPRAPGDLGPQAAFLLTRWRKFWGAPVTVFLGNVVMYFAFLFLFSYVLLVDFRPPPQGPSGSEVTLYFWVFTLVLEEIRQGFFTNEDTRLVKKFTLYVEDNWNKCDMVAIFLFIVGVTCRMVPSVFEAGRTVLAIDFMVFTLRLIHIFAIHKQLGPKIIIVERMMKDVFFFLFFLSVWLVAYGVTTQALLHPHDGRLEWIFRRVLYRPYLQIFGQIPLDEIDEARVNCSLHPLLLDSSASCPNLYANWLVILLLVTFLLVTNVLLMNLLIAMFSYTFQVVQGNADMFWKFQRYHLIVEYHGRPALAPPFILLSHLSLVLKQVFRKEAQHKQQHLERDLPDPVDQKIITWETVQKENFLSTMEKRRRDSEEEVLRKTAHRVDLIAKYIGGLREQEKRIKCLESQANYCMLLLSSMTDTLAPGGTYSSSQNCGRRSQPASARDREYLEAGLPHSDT

Cc1cc(/C=N/NC(=O)[C@@H]2C[C@H]2c2ccccc2)cc2cccnc12 (relative stereo)
active: [1] Dose-dependent effect | [2] Dose-dependent effect | [3] Dose-dependent effect
